What was measured:
[1] = in vivo; cited from earlier work
[2] = cited from earlier work
[3] = tested on: IFN-gamma; experiment: Mitogen (Concanavalin A) induced IFN-gamma production by splenocyte mononuclear cells of treated mice, ELISA; type: in vivo; details: splenocytes of B16-bearing mice treated as in Example 3, Concanavalin A 5 μg/mL, saline control about 200 ng/mL, FIG. 2
Description: FIG. 2 illustrates the stimulation of mitogen induced IFN-gamma production by pterostilbene in mice. Mice were treated as described in FIG. 1 (from left to right: saline; 25 μg/kg pterostilbene; 500 IU/mouse IL-2; and a combination of IL-2 and pterostilbene at the indicated concentrations). Mononuclear cells were obtained and plated in 96-well plates and treated with Concanavalin A at 5 μg/mL. IFN-gamma was assessed by ELISA. The y-axis is expressed as ng/mL.
Mice from Example 3 where euthanized by cervical dislocation and spleens were excised in a sterile manner. Splenocyte mononuclear cells were obtained by hypotonic lysis and washed 3 times in PBS. Mononuclear cells were plated in 96 well plates and treated with Concanavalin A at 5 μg/mL. Interferon gamma was assessed by ELISA and expressed as ng/mL. […] In contrast, mononuclear cells of mice treated with pterostilbene alone expressed about 900 ng/mL IFN-gamma, and mononuclear cells of mice treated with the combination of pterostilbene and IL-2 expressed about 1500 ng/mL IFN-gamma. As disclosed herein, enhanced expression of IFN-gamma elicits an immune response.

[4] = in vivo; cited from earlier work; remark: listed apart in the source

SMILES | half-life [1] | solubility in aqueous solution [2] | IFN-gamma expressed by mononuclear cells [3] | systemic bioavailability [4]
COc1cc(/C=C/c2ccc(O)cc2)cc(OC)c1 [pterostilbene, trans-3,5-dimethoxy-4′-hydroxy-trans-stilbene] | approximately 2 hr | sparingly soluble | about 900 ng/mL | 
Oc1ccc(/C=C/c2cc(O)cc(O)c2)cc1 [t-RESV, trans-3,5,4′-trihydroxystilbene] |  |  |  | low

Source: patent US9682047B2, “Augmentation of oncology immunotherapies by pterostilbene containing compositions” (THERAPEUTIC SOLUTIONS INTERNATIONAL, INC., priority 2015, dated 2017)
